Measurements as given in publication PMC8079033, “Design, synthesis, anticancer evaluation, and molecular modelling studies of novel tolmetin derivatives as potential VEGFR-2 inhibitors and apoptosis inducers” (Journal of Enzyme Inhibition and Medicinal Chemistry, 2021).

Tests used:
caspase-9 = assay: Caspase-9 ELISA in HCT-15 cells; type: cell-based, human
Method: (§1) To measure caspase-8 and caspase-9 levels, DRG® Caspase-8 (human) (EIA-4863) ELISA and DRG® Caspase-9 (human) (EIA-4860) ELISA kits were used. Briefly, prepare cell extracts after induction of apoptosis. Resuspend the extracts in lysis buffer, incubate 60 min at room temperature, and centrifuge for 15 min. Wash the microwell strips with 400 µl wash buffer. Add 100 µl of sample diluent in duplicate to all standard wells. Add 100 µl of sample diluent in duplicate to the blank wells. Add 50 µl of sample diluent to the sample wells. Add 50 µl of each sample in duplicate to the sample wells. Add 50 µl of detection antibody to all wells and incubate at room temperature for 2 h. Add 100 µl of diluted anti-rabbit-IgG-HRP to all wells, including the blank wells. Pipette 100 µl of (3,3′,5,5′-Tetramethylbenzidine) TMB substrate solution to all wells and incubate at room temperature for about 15 min. Stop the enzyme reaction by pipetting 100 µl of stop solution into each well. Read absorbance of each microwell on a spectro-photometer using 450 nm. Determine the absorbance of both the samples and the standards.
(§2) The activation of caspases as caspase-3, caspase-8, and caspase-9 is responsible for apoptosis, particularly caspase-3 which is an effector caspase that has an important role in apoptosis. It is activated by one of the initiator caspases which results in the activation of certain enzymes responsible for the fragmentation of DNA[53]. Caspase-8 and -9 are initiator caspases that are responsible for caspase-3 activation.

caspase-3 = assay: Caspase-3 (active) ELISA in HCT-15 cells; type: cell-based, human
Method: The level of the apoptotic marker caspase-3 was assessed using Human Caspase-3 (active) ELISA Kit Catalog # KHO1091. The procedure of the used kit was done according to the manufacturer’s instructions. Allow all reagents to reach room temperature before use. Gently mix all liquid reagents prior to use. Add 100 µl of the standard diluent buffer to the zero standard wells. Add 100 µl of standards and controls or diluted samples to the appropriate microtiter wells. Incubate for 2 h at room temperature. […] Incubate for 1 h at room temperature. Add 100 µl anti-rabbit IgG HRP working solution to each well. Prepare the working dilution and incubate for 30 min at room temperature. Add 100 µl of stabilised chromogen to each well. The liquid in the wells will begin to turn blue. Incubate for 30 min at room temperature and in the dark. Add 100 µl of stop solution to each well. The solution in the wells should change from blue to yellow. Read the absorbance of each well at 450 nm. Read the plate within 2 h after adding the stop solution. Use a curve fitting software to generate the standard curve. Read the concentrations for unknown samples and controls from the standard curve.
as §2

[1] = test system: leukaemia HL-60 (TB) cell line; assay: MTT cytotoxicity assay; type: cell-based; conditions: Homo sapiens, mean ± SD of three experiments
renal (UO-31) cell line = assay: MTT cytotoxicity assay; type: cell-based; conditions: Homo sapiens, mean ± SD of three experiments
HUVECs = assay: Wound healing assay (CytoSelect 24-well); type: cell-based, human; conditions: 72 h, 5b 2.4 µM, sunitinib 3.2 µM, control 97.03 ± 5.47
Method: Wound healing assay of compound 5b was evaluated using CytoSelect™ 24-Well Wound Healing Assay kit Catalog # CBA-120 according to manufacturer’s instructions. In brief, the 24-well plate wound healing inserts were allowed to warm up at room temperature for 10 minutes, then to each well, 500 µl of human umbilical vascular endothelial cells (HUVECs) suspension (1.0 × 10^6) in media containing 10% fetal bovine serum (FBS) was added. Cells were kept in a cell culture incubator until a monolayer form. Carefully the insert was removed from the well. The media were slowly aspirated and discarded from the wells. The wells were washed with media to remove dead cells and debris. Finally, the media were added to wells to keep cells hydrated, then wells were visualized under a light microscope. […] The percent closure of the cells into the wound field was measured.
One of the hallmarks of angiogenesis is cell migration, which happens in the earlier stages of the angiogenic cascade. A wound-healing assay was performed to investigate in vitro anti-angiogenic property of compound 5b.

caspase-8 = assay: Caspase-8 ELISA in HCT-15 cells; type: cell-based, human
Method: as §1, §2

colon (HCT-15) cell line = assay: MTT cytotoxicity assay; type: cell-based; conditions: Homo sapiens, mean ± SD of three experiments

CCN(CC)CCNC(=O)c1c(C)[nH]c(/C=C2\C(=O)Nc3ccc(F)cc32)c1C [Sunitinib, reference compound]
Caspase-9 (caspase-9; mean ± SD of three experiments, control 3.225 ± 0.44): 27.26 ± 0.82 ng/mL
increase in the level of caspase-9 (caspase-9; vs control): 8.453 fold
Caspase-3 (caspase-3; mean ± SD of three experiments, control 0.073 ± 0.01): 0.641 ± 0.02 ng/mL
increase in the level of caspase-3 (caspase-3; vs control): 8.780 fold
IC50 [1]: 2.77 ± 0.14 µM
IC50 (renal (UO-31) cell line): 18.1 ± 0.95 µM
Wound closure percentage (HUVECs): 44.44 ± 2.51%
Caspase-8 (caspase-8; mean ± SD of three experiments, control 0.377 ± 0.03): 1.284 ± 0.11 ng/mL
increase in the level of caspase-8 (caspase-8; vs control): 3.406 fold
IC50 (colon (HCT-15) cell line): 9.06 ± 0.49 µM
